Patent US20120270237A9, “METHODS FOR THE IDENTIFICATION OF KINASE INTERACTING MOLECULES AND FOR THE PURIFICATION OF KINASE PROTEINS” (Cellzone AG, priority 2009, published 2012)

Columns and labels:
Assay in all cases: Kinobeads competition binding, HL60 cell lysate
Settings in all cases: 10 μM free compound
CLK1 = molecular target: T1, CLK1 (Homo sapiens, UniProt P49759)
T1 construct: endogenous in cells; host or cells: HL60 cells
Description: (§1) To one aliquot of cell lysate 10 μM of the free compound (FIG. 3, CZC31326) was added and allowed to bind to proteins in the lysate. Then the affinity matrix with the immobilized compound (Example 1) was added to capture proteins that were not interacting with the previously added free compound. Beads were separated from the lysate and bead bound proteins were eluted in SDS sample buffer and subsequently separated by SDS-Polyacrylamide gel electrophoresis (FIG. 4). Suitable gel bands were cut out and subjected to in-gel proteolytic digestion with trypsin. The second lysate aliquot was processed identically, however no free compound was added (DMSO solvent control). Peptides originating from samples 1 and 2 were labeled with iTRAQ reagents (iTRAQ 114 and iTRAQ 117) and the combined samples were analyzed with a nano-flow liquid chromatography system coupled online to a tandem mass spectrometer (LC-MS/MS) experiment followed by iTRAQ reporter ion quantification in the MS/MS spectra (Ross et al., 2004. Mol. Cell. Proteomics 3(12):1154-1169). Further experimental protocols can be found in WO2006/134056 and a previous publication (Bantscheff et al., 2007. Nature Biotechnology 25, 1035-1044). Sepharose-beads with the immobilized compound (100 μl beads per pull-down experiment) were equilibrated in lysis buffer and incubated with a cell lysate sample containing 50 mg of protein on an end-over-end shaker (Roto Shake Genie, Scientific Industries Inc.) for 2 hours at 4° C. Beads were collected, transferred to Mobicol-columns (MoBiTech 10055) and washed with 10 ml lysis buffer containing 0.4% NP40 detergent, followed by 5 ml lysis buffer containing 0.2% detergent. To elute bound proteins, 60 μl 2×SDS sample buffer was added to the column. The column was incubated for 30 minutes at 50° C. and the eluate was transferred to a siliconized microfuge tube by centrifugation. Proteins were then alkylated with 108 mM iodoacetamid. Proteins were then separated by SDS-Polyacrylamide electrophoresis (SDS-PAGE). The peptide extracts of samples treated with 10 μM of free compound (CZC31326) and the solvent control (0.5% DMSO) were treated with different variants of the isobaric tagging reagent (iTRAQ Reagents Multiplex Kit, part number 4352135, Applied Biosystems, Foster City, Calif., USA). The iTRAQ reagents are a set of multiplexed, amine-specific, stable isotope reagents that can label peptides on amino groups in up to four different biological samples enabling simultaneous identification and quantitation of peptides. The iTRAQ reagents were used according to instructions provided by the manufacturer. The samples were resuspended in 10 μl 50 mM TEAB solution, pH 8.5 and 10 μl ethanol were added. The iTRAQ reagent was dissolved in 120 μl ethanol and 10 μl of reagent solution were added to the sample. The labeling reaction was performed at room temperature for one hour on a horizontal shaker and stopped by adding 5 μl of 100 mM TEAB and 100 mM glycine in water. The two labeled sampled were then combined, dried in a vacuum centrifuge and resuspended in 10 μl of 0.1% formic acid in water. Relative protein quantitation was performed using peak areas of iTRAQ reporter ion signals essentially as described in an earlier publication (Bantscheff et al., 2007. Nature Biotechnology 25, 1035-1044).

KHS1 = molecular target: T2, KHS1 (Homo sapiens, UniProt Q9Y4K4)
T2 construct: Identified kinases with CZC31326 from HL60 lysate; endogenous in cells; host or cells: HL60
Description: as §1

HIPK1 = molecular target: T3, HIPK1 (Homo sapiens, UniProt Q86Z02)
T3 construct: endogenous in cells; host or cells: HL60
Description: as §1

EphB6 = molecular target: T4, EphB6 (Homo sapiens, UniProt O15197)
T4 construct: endogenous in cells; host or cells: HL60 (DSMZ ACC3)
Description: as §1

TEC = molecular target: T5, TEC (Homo sapiens, UniProt P42680)
T5 sequence (P42680 1-631): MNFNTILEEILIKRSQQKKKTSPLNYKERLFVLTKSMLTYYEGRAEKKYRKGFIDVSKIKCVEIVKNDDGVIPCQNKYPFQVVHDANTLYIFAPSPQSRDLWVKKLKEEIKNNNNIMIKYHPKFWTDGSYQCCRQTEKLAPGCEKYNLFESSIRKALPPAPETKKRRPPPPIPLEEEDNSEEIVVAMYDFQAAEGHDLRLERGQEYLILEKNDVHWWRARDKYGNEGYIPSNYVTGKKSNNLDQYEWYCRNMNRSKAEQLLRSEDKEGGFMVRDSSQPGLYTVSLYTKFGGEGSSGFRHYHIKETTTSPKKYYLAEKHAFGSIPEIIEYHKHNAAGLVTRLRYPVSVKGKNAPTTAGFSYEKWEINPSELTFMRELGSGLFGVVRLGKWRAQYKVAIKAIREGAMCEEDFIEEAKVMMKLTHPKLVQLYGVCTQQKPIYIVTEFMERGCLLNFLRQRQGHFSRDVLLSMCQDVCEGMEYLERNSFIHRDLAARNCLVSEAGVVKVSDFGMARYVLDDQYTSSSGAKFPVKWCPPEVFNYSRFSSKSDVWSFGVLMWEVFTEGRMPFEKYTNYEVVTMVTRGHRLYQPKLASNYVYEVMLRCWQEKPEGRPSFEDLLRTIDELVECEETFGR
Description: as §1

T4 sequence (O15197 32-1021): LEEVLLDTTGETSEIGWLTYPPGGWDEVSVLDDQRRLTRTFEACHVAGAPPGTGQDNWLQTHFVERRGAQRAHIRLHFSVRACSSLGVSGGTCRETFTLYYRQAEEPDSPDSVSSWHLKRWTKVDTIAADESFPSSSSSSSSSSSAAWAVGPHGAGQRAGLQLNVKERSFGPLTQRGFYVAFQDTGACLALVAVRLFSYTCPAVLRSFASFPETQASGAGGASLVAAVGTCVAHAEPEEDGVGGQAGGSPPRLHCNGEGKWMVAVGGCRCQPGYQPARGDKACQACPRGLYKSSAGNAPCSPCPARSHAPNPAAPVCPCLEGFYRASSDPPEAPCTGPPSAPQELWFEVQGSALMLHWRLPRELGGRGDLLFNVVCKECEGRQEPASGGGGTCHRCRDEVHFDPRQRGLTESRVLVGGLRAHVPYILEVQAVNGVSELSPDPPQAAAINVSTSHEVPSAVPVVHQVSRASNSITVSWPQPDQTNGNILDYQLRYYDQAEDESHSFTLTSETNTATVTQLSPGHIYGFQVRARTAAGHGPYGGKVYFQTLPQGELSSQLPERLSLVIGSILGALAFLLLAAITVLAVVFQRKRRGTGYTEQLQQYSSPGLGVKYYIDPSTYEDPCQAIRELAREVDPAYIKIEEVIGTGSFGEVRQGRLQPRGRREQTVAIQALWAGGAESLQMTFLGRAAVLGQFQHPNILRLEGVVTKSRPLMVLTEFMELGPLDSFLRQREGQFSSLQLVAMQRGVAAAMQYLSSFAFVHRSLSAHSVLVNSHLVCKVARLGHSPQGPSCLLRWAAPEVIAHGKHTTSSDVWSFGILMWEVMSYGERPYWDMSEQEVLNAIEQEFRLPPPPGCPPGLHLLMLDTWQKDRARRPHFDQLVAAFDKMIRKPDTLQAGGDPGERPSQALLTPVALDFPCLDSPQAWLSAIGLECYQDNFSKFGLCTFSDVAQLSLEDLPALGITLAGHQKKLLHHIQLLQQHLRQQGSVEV
T2 sequence (Q9Y4K4 whole entry): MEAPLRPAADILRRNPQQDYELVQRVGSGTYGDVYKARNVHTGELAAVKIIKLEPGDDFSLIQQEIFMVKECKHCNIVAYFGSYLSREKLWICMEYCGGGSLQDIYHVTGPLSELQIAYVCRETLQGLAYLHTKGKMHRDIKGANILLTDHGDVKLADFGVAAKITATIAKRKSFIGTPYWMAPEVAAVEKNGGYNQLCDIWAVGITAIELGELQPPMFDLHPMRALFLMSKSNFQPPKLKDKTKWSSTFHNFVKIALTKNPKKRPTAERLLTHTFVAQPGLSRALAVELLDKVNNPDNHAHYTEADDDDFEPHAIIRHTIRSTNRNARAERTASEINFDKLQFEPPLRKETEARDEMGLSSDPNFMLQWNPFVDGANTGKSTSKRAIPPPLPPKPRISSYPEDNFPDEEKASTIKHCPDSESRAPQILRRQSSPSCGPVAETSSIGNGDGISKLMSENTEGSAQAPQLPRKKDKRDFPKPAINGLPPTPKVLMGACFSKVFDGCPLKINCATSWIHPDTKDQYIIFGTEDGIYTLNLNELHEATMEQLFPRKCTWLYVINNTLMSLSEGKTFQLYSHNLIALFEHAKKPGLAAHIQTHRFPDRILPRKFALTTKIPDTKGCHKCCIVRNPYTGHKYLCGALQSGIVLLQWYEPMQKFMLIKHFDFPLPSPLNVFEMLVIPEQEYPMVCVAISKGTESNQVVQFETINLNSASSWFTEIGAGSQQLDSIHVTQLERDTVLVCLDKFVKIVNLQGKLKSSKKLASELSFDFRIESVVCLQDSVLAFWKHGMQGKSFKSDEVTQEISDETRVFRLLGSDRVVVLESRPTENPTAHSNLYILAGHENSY
T1 sequence (P49759 whole entry): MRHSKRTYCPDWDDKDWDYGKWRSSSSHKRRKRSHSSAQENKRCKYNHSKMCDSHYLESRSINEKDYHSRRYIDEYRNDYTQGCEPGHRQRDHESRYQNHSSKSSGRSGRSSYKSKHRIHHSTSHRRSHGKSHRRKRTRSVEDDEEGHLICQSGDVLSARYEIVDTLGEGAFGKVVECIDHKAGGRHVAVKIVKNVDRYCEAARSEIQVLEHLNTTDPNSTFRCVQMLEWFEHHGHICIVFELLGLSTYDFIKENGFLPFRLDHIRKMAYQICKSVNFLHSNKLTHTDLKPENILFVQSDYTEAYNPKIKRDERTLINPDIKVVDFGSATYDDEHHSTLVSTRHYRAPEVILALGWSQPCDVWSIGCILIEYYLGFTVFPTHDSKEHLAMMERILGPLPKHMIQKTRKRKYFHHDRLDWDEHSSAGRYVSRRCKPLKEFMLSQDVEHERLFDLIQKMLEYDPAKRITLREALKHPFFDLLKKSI
T3 sequence (Q86Z02 whole entry): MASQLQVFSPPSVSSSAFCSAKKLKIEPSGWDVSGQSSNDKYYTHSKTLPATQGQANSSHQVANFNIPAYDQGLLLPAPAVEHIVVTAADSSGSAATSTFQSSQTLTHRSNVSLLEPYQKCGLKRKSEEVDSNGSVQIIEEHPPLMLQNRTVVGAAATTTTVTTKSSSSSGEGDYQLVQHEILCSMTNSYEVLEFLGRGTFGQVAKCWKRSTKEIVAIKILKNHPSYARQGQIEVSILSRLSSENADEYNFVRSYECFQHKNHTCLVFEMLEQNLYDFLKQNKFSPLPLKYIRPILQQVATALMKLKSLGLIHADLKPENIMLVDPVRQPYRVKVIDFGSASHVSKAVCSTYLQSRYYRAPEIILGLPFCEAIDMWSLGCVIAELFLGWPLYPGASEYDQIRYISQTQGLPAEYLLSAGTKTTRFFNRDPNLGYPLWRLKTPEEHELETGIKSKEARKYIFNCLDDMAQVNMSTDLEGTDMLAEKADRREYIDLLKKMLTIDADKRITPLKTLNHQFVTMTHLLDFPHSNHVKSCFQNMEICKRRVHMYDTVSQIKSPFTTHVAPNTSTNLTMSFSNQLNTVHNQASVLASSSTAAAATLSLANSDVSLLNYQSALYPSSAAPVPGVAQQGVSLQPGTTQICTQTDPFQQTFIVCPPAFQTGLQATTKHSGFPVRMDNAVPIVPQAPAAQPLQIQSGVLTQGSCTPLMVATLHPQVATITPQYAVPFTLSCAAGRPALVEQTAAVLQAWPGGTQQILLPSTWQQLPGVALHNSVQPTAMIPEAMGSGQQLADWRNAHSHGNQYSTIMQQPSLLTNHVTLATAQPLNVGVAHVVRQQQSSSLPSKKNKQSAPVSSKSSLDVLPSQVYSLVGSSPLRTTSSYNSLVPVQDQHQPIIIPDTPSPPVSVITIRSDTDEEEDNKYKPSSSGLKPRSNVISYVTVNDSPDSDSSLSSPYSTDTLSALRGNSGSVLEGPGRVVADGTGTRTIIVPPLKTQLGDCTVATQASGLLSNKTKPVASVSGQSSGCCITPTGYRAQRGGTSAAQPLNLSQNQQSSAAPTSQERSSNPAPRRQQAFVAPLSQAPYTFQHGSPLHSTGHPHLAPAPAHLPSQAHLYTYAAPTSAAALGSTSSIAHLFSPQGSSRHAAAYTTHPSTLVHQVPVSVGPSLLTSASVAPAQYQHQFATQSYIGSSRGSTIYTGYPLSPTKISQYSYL

inhibition at 10 µM (CLK1): 97.4%
inhibition at 10 µM (KHS1): 93.2%
inhibition at 10 µM (HIPK1): 97.1%
inhibition at 10 µM (EphB6): 93.6%
inhibition at 10 µM (TEC): 97%
SMILES: CS(=O)(=O)Nc1ccccc1Nc1nc(Nc2cccc(OCCN)c2)ncc1Cl [CZC31326, N-(2-(2-(3-(2-aminoethoxy)phenylamino)-5-chloropyrimidin-4-ylamino)phenyl)methanesulfonamide]
